Experimental data from ChEMBL document CHEMBL1909046, “DrugMatrix in vitro pharmacology data”.

Columns and labels:
[1] = molecular target: 5-hydroxytryptamine receptor 4 (Cavia porcellus, UniProt O70528); assay type: cell membranes, Dunkin-Hartley, Striatum, Membrane; note: in other assays of this panel Not Active means under 50% inhibition at 10 µM
[2] = molecular target: T1, Polyunsaturated fatty acid lipoxygenase ALOX15 (Oryctolagus cuniculus, UniProt P12530); test: biochemical; assay type: tissue-based, Reticulocytes;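 note: inhibition of 15-lipoxygenase enzyme activity measured with linoleic acid as the substrate; in other assays of this panel Not Active means under 50% inhibition at 10 µM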
T1 sequence (P12530 whole entry): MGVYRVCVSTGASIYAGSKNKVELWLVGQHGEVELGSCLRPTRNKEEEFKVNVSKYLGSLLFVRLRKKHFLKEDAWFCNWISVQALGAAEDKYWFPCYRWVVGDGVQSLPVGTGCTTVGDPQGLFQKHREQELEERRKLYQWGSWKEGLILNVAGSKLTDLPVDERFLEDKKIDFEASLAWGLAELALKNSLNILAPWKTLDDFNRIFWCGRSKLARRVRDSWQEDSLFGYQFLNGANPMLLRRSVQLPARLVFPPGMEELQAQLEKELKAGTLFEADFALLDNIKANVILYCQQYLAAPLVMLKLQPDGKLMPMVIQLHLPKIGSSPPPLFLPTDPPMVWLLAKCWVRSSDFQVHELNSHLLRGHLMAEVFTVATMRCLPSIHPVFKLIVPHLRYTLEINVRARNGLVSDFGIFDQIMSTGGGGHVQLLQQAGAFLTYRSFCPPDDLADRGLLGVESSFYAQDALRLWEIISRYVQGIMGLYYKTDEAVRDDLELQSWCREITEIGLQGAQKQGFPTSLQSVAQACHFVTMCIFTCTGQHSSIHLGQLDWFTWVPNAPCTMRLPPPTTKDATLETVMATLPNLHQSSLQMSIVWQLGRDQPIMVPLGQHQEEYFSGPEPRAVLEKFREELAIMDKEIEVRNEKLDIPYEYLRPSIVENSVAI

[3] = molecular target: Kappa-type opioid receptor (Homo sapiens, UniProt P41145); test: DRUGMATRIX: Opiate kappa (OP2, KOP) radioligand binding (ligand: [3H] Diprenorphine); assay type: cell membranes, HEK293, Membrane; conditions: hek293; Not Active = under 50% inhibition at 10 µM
[4] = molecular target: Epidermal growth factor receptor (Homo sapiens, UniProt P00533); test: DRUGMATRIX: Protein Tyrosine Kinase, EGF Receptor enzyme inhibition (substrate: Poly(Glu:Tyr)); assay type: cell-based, Insect cells; conditions: Not Active = under 50% inhibition at 10 µM
[5] = molecular target: Tyrosine-protein kinase Lck (Homo sapiens, UniProt P06239); test: DRUGMATRIX: Protein Tyrosine Kinase, LCK enzyme inhibition (substrate: Poly(Glu:Tyr)); assay type: cell-based, Insect cells; conditions: Not Active = under 50% inhibition at 10 µM
Tyrosine-protein kinase Lck, sequence (P06239 whole entry): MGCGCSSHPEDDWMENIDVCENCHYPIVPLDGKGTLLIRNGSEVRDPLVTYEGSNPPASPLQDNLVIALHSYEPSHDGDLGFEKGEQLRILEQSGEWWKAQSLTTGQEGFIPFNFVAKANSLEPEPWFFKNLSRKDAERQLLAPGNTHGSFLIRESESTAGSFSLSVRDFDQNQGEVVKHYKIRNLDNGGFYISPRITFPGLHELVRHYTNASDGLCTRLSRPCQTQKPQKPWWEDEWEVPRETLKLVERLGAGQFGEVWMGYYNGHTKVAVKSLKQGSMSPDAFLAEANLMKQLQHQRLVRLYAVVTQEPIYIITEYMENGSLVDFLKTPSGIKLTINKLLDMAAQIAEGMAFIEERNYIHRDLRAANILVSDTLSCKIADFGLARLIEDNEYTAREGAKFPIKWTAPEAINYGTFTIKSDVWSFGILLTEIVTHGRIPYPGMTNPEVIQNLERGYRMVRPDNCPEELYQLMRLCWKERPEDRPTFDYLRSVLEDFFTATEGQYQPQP

Kappa-type opioid receptor, sequence (P41145 whole entry): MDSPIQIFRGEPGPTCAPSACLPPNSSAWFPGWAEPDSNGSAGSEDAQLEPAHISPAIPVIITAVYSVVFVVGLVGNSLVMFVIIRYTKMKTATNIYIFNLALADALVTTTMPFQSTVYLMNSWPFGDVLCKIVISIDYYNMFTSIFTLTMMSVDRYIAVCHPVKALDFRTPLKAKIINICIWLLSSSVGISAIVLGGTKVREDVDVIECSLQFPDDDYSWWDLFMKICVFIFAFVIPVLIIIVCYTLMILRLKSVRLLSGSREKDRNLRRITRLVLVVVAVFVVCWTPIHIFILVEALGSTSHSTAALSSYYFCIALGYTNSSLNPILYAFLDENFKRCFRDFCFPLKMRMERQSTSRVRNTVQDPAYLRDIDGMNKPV
5-hydroxytryptamine receptor 4, sequence (O70528 whole entry): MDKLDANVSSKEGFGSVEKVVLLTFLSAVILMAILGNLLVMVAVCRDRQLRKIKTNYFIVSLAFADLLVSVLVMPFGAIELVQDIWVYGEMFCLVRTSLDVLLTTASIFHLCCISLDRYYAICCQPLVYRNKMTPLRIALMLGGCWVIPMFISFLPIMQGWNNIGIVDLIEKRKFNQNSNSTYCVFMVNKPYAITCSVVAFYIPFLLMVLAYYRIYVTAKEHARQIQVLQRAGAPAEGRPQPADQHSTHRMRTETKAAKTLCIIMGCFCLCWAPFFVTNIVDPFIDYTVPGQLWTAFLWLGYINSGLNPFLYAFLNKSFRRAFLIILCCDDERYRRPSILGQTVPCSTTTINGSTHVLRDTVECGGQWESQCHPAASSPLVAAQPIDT

Row | Compound | IC50 [1] | IC50 ([2]; reticulocytes) | IC50 [3] | IC50 ([4]; insect cells) | IC50 ([5]; insect cells) | also measured
1 | C=C(CC)C(=O)c1ccc(OCC(=O)O)c(Cl)c1Cl [ETHACRYNIC ACID] | Not Active | Not Active | Not Active | Not Active | Not Active | 
2 | CC(C(=O)O)c1ccc(-c2ccccc2)c(F)c1 (centres undefined) [FLURBIPROFEN] | Not Active | Not Active | Not Active | Not Active | Not Active | 
3 | COc1ccccc1OCC(O)COC(N)=O (centres undefined) [METHOCARBAMOL] | Not Active | Not Active | Not Active | Not Active | Not Active | 
4 | CC(C(=O)O)c1ccc(CC2CCCC2=O)cc1 (centres undefined) [LOXOPROFEN] | Not Active | Not Active | Not Active | Not Active | Not Active | 
5 | CCCCC1C(=O)N(c2ccccc2)N(c2ccccc2)C1=O [PHENYLBUTAZONE] | Not Active | Not Active | Not Active | Not Active | Not Active | 
6 | CCN[C@@H](C)Cc1cccc(C(F)(F)F)c1 [DEXFENFLURAMINE] | Not Active | Not Active | Not Active | Not Active | Not Active | 
7 | COc1ccccc1OCC(O)CO (centres undefined) [GUAIFENESIN] | Not Active | Not Active | Not Active | Not Active | Not Active | 
8 | CCC(=O)O[C@H]1[C@H](O[C@@H]2[C@@H](C)[C@H](O[C@H]3C[C@@](C)(OC)[C@@H](O)[C@H](C)O3)[C@@H](C)C(=O)O[C@H](CC)[C@@](C)(O)[C@H](O)[C@@H](C)C(=O)[C@H](C)C[C@@]2(C)O)O[C@H](C)C[C@@H]1N(C)C [ERYTHROMYCIN PROPIONATE] | Not Active | Not Active | Not Active | Not Active | Not Active | 
9 | C=C1/C(=C\C=C2/CCC[C@]3(C)[C@@H]([C@H](C)CCCC(C)C)CC[C@@H]23)C[C@@H](O)C[C@@H]1O [ALFACALCIDOL] | Not Active | Not Active | Not Active | Not Active | Not Active | 
10 | CS(=O)(=O)OCCCCOS(C)(=O)=O [BUSULFAN] | Not Active | Not Active | Not Active | Not Active | Not Active | 
11 | C[C@]12CCC(=O)C=C1CC[C@@H]1[C@@H]2[C@@H](O)C[C@@]2(C)[C@H]1CC[C@]2(O)C(=O)CO [HYDROCORTISONE] | Not Active | Not Active | Not Active | Not Active | Not Active | 
12 | POLYVINYL ALCOHOL | Not Active | Not Active |  | Not Active | Not Active | Ki [1]: Not Active; Ki ([2]; reticulocytes): Not Active; Ki ([4]; insect cells): Not Active; Ki ([5]; insect cells): Not Active
13 | COBALT(II) ACETYLACETONATE | Not Active | Not Active |  | Not Active | Not Active | Ki [1]: Not Active; Ki ([2]; reticulocytes): Not Active; Ki ([4]; insect cells): Not Active; Ki ([5]; insect cells): Not Active
14 | Nc1nc(N)nc(NC2CC2)n1 [CYROMAZINE] | Not Active | Not Active |  | Not Active | Not Active | 
15 | CN(C(=O)CCCOc1ccc2[nH]c(=O)ccc2c1)C1CCCCC1 [CILOSTAMIDE] | Not Active | Not Active | Not Active | Not Active | Not Active | 
16 | CC(C)(Oc1ccc(C2CC2(Cl)Cl)cc1)C(=O)O (centres undefined) [CIPROFIBRATE] |  | Not Active | Not Active | Not Active | Not Active | Ki [1]: Not Active
17 | Cc1cn[nH]c1 [FOMEPIZOLE] | Not Active | Not Active | Not Active | Not Active | Not Active | 
18 | CCc1oc2ccccc2c1C(=O)c1cc(Br)c(O)c(Br)c1 [BENZBROMARONE] | Not Active |  | Not Active | Not Active | Not Active | Ki ([2]; reticulocytes): Not Active
19 | CN1C[C@H](C(=O)N[C@]2(C)O[C@@]3(O)[C@@H]4CCCN4C(=O)[C@H](Cc4ccccc4)N3C2=O)C[C@@H]2c3cccc4[nH]cc(c34)C[C@H]21 [DIHYDROERGOTAMINE] |  | Not Active |  | Not Active | Not Active | IC50 ([1]; read-out: IC50): 0.94 µM; Ki ([1]; read-out: Ki): 0.157 µM

Row | Compound | IC50 [1] | IC50 ([2]; reticulocytes) | IC50 [3] | IC50 ([4]; insect cells) | IC50 ([5]; insect cells) | also measured
20 | CNC(=C[N+](=O)[O-])NCCSCc1csc(CN(C)C)n1 [NIZATIDINE] | Not Active | Not Active | Not Active | Not Active | Not Active | 
21 | CCC[C@@H]1C[C@@H](C(=O)N[C@@H]([C@H]2O[C@H](SC)[C@H](O)[C@@H](O)[C@H]2O)[C@H](C)Cl)N(C)C1 [CLINDAMYCIN] | Not Active | Not Active | Not Active | Not Active | Not Active | 
22 | CC(=O)O[C@]1(C(C)=O)CC[C@H]2[C@@H]3C=C(Cl)C4=CC(=O)[C@@H]5C[C@@H]5[C@]4(C)[C@H]3CC[C@@]21C [CYPROTERONE ACETATE] | Not Active | Not Active | Not Active | Not Active | Not Active | 
23 | CN(Cc1cnc2nc(N)nc(N)c2n1)c1ccc(C(=O)N[C@@H](CCC(=O)O)C(=O)O)cc1 [METHOTREXATE] | Not Active | Not Active | Not Active | Not Active | Not Active | 
24 | C/C=C\c1ccc(O)c(OC)c1 [ISOEUGENOL] | Not Active | Not Active | Not Active | Not Active | Not Active | 
25 | Cc1cnc(C(=O)NCCc2ccc(S(=O)(=O)NC(=O)NC3CCCCC3)cc2)cn1 [GLIPIZIDE] | Not Active | Not Active | Not Active | Not Active | Not Active | 
26 | CC(CCc1ccc(O)cc1)NCCc1ccc(O)c(O)c1 (centres undefined) [DOBUTAMINE] | Not Active |  | Not Active |  |  | IC50 ([2]; read-out: IC50): 0.599 µM; IC50 ([4]; read-out: IC50): 5.55 µM; IC50 ([5]; read-out: IC50): 5.52 µM
27 | Nc1nc(Cl)nc2c1ncn2[C@H]1C[C@H](O)[C@@H](CO)O1 [CLADRIBINE] | Not Active | Not Active | Not Active | Not Active | Not Active | 
28 | Cc1cccc(Nc2cc(Cl)nc(SCC(=O)O)n2)c1C [PIRINIXIC ACID] | Not Active | Not Active | Not Active | Not Active | Not Active | 
29 | INSULIN HUMAN | Not Active | Not Active |  | Not Active |  | Ki [1]: Not Active; Ki ([2]; reticulocytes): Not Active; Ki ([4]; insect cells): Not Active; IC50 ([5]; insect cells, read-out: IC50): 18.1 µM
30 | CCn1cc(C(=O)O)c(=O)c2cc(F)c(N3CCNCC3)nc21 [ENOXACIN] | Not Active | Not Active | Not Active | Not Active | Not Active | 
31 | O=C(O)c1cc(=O)c2c(OCC(O)COc3cccc4oc(C(=O)O)cc(=O)c34)cccc2o1 [CROMOLYN] | Not Active | Not Active | Not Active | Not Active | Not Active | 
32 | CC(=O)OCC(CCn1cnc2cnc(N)nc21)COC(C)=O [FAMCICLOVIR] | Not Active | Not Active | Not Active | Not Active | Not Active | 
33 | O=P1(N(CCCl)CCCl)NCCCO1 (centres undefined) [CYCLOPHOSPHAMIDE ANHYDROUS] | Not Active | Not Active | Not Active | Not Active | Not Active | 
34 | O=c1cc(-c2ccccc2)oc2ccc3ccccc3c12 [BETA-NAPHTHOFLAVONE] | Not Active | Not Active | Not Active | Not Active | Not Active | 
35 | CC(C)(Sc1cc(C(C)(C)C)c(O)c(C(C)(C)C)c1)Sc1cc(C(C)(C)C)c(O)c(C(C)(C)C)c1 [PROBUCOL] | Not Active | Not Active | Not Active | Not Active | Not Active | 
36 | Clc1cc2c(cc1Cl)Oc1cc(Cl)c(Cl)cc1O2 [2,3,7,8-TETRACHLORODIBENZO-P-DIOXIN] | Not Active | Not Active |  | Not Active | Not Active | 
37 | COc1ccc(Cc2nccc3cc(OC)c(OC)cc23)cc1OC [PAPAVERINE] | Not Active | Not Active |  | Not Active | Not Active | 
38 | CC(C)C[C@H]1C(=O)N2CCC[C@H]2[C@]2(O)O[C@](NC(=O)[C@@H]3C=C4c5cccc6[nH]c(Br)c(c56)C[C@H]4N(C)C3)(C(C)C)C(=O)N12 [BROMOCRIPTINE] | Not Active | Not Active |  | Not Active | Not Active | 
